Patent publication US20240247080A1, “GLP1/GIP/NPY2 RECEPTOR TRIPLE AGONISTS” (Boehringer Ingelheim International GmbH, priority 2022, published 2024)
Like-named read-outs stand apart in the source and are kept apart here. Starred links: 1 amine or outer side, 2 acyl side, 3 side chain; linkers in the order of their positions; H or OH if unused. Non-standard residues stand in square brackets, D forms with d. Groups on a side chain read outwards from the residue. No end group written: not given here. *: point of attachment. C20 diacid = O=C(O)CCCCCCCCCCCCCCCCCCC(=O)*; C18 diacid = O=C(O)CCCCCCCCCCCCCCCCC(=O)*; γGlu = O=C(O)[C@H](CCC(=O)[*:2])N[*:1]; εLys = N[C@@H](CCCCN[*:1])C(=O)[*:2]; AEEA = NCCOCCOCC(=O)O; Aib = CC(C)(N)C(=O)O

How the values were obtained:
Format in all cases: cell-based
Details in all cases: CreLuc reporter gene assay
hGLP1R = molecular target: T1, hGLP1R (Homo sapiens, UniProt P43220); test: hGLP1R CreLuc reporter gene assay in 0.5% and 100% plasma
T1 construct: expressed in transfected cells; host or cells: HEK-293 cells carrying a CRE-luciferase reporter gene
T1 sequence (P43220 24-463): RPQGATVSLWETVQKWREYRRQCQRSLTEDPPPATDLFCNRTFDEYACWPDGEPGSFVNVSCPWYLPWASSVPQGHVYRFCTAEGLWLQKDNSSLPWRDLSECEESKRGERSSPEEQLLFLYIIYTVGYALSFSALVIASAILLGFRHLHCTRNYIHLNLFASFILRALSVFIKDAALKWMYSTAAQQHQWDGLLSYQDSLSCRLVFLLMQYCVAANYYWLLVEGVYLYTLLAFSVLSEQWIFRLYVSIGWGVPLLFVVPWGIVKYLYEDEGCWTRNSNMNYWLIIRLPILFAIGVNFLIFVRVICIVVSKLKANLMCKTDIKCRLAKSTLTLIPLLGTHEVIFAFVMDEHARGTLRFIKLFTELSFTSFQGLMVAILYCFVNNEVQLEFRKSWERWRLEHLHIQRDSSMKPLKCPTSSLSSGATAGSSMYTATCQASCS
Procedure, shortened: (§1)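 Agonist EC50s came from 8-concentration curves over four decades, fitted by non-linear variable-slope regression of CRE-driven luciferase luminescence. Cells were exposed 4 h at 37 °C, in buffer with 0.5% human plasma or in 100% plasma; GIPR was expressed in CHO cells, GLP-1R and NPY2R in HEK cells.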

hGIPR = molecular target: T2, hGIPR (Homo sapiens, UniProt P48546); test: hGIPR CreLuc reporter gene assay in 0.5% and 100% plasma
T2 construct: expressed in transfected cells; host or cells: CHO cells carrying a CRE-luciferase reporter gene
T2 sequence (P48546 22-466): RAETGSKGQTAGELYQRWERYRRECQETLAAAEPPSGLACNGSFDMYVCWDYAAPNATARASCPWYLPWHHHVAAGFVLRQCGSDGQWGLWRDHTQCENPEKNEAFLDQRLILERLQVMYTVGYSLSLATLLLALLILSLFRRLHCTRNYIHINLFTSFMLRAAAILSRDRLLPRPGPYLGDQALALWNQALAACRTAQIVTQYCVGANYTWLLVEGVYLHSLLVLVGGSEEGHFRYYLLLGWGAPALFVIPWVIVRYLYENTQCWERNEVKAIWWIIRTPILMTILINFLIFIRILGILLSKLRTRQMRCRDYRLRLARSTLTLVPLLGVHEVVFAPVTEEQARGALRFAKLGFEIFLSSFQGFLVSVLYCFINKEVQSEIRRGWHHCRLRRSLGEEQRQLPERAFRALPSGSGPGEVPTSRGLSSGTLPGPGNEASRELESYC
Procedure, shortened: as §1

hNPY2R = molecular target: T3, hNPY2R (Homo sapiens, UniProt P49146); test: hNPY2R CreLuc reporter gene assay in 0.5% and 100% plasma
T3 construct: expressed in transfected cells; host or cells: HEK-293 cells carrying a CRE-luciferase reporter gene
T3 sequence (P49146 1-381): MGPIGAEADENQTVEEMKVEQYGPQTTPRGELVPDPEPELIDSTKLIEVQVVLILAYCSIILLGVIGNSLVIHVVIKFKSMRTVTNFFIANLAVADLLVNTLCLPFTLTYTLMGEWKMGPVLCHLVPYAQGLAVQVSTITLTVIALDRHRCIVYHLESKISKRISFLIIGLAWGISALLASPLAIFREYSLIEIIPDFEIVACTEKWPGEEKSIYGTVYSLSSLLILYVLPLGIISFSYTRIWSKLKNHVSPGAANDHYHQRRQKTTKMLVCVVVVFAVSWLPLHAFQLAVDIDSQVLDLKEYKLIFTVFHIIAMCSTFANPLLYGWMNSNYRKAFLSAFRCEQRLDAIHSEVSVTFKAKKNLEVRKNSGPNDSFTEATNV
Procedure, shortened: as §1

[1] = 0.5% human plasma, read-out: hGLP1R 0.5% hP
[2] = 0.5% human plasma, read-out: hGIPR 0.5% hP
[3] = 0.5% human plasma, read-out: hNPY2R 0.5% hP
[4] = 100% human plasma, read-out: hGIPR 100% hP
[5] = 100% human plasma, read-out: hNPY2R 100% hP

Substance | EC50 (hGLP1R; [1]) [nM] | EC50 (hGIPR; [2]) [nM] | EC50 (hNPY2R; [3]) [nM] | EC50 (hGIPR; [4]) [nM] | EC50 (hNPY2R; [5]) [nM] | EC50 (hGLP1R; 100% human plasma, read-out: hGLP1R 100% hP) [nM]
Y[Aib]EGTFTSDYSI[Aib]LEKQAE[Aib]AFVEWLIK([AEEA-AEEA-γGlu-γGlu-γGlu-γGlu-C18 diacid])GGPSSGASLRHYYNWLTRQRY-NH2 [Compound 150, Y-Aib-E-G-T-F-T-S-D-Y-S-I-Aib-L-E-K-Q-A-E-Aib-A-F-V-E-W-L-I-K(1,3)-GGPSSGASLRHYYNWLTRQRY-NH2.C18DA-gGlu-glu-Glu-Glu-OEG-OEG(1,2)] | 0.31 | 0.27 | 16.7 | – | – | –
Y[Aib]EGTFTSDYSI[Aib]LEKQAQ[Aib]AFVEWLIK([AEEA-AEEA-γGlu-γGlu-γGlu-C18 diacid])GGPSEGASLRHYYNWLTRQRY-NH2 [Compound 299, Y-Aib-E-G-T-F-T-S-D-Y-S-I-Aib-L-E-K-Q-A-Q-Aib-A-F-V-E-W-L-I-K(1,3)-GGPSEGASLRHYYNWLTRQRY-NH2.C18DA-gGlu-gGlu-gGlu-OEG-OEG(1,2)] | 0.08 | 0.4 | 11 | 0.71 | 31.6 | –
Y[Aib]EGTFTSDYSI[Aib]LEKQAQ[Aib]AFVEWLIK([AEEA-AEEA-γGlu-γGlu-γGlu-γGlu-γGlu-C20 diacid])GGPSSPASLRHYYNWLTRQRY-NH2 [Compound 120, Y-Aib-E-G-T-F-T-S-D-Y-S-I-Aib-L-E-K-Q-A-Q-Aib-A-F-V-E-W-L-I-K(1,3)-GGPSSPASLRHYYNWLTRQRY-NH2.C20DA-gGlu-gGlu-gGlu-gGlu-gGlu-OEG-OEG(1,2)] | 0.11 | 0.34 | 10.7 | 1.44 | 39.2 | –

Further lines, results first:

EC50 (hGLP1R; [1]) [nM] | EC50 (hGIPR; [2]) [nM] | EC50 (hNPY2R; [3]) [nM] | EC50 (hGIPR; [4]) [nM] | EC50 (hNPY2R; [5]) [nM] | EC50 (hGLP1R; 100% human plasma, read-out: hGLP1R 100% hP) [nM] | Substance
0.14 | 0.3 | 10.9 | 0.98 | – | – | Y[Aib]EGTFTSDYSI[Aib]LEKQAQ[Aib]AFVEWLIK([εLys-γGlu-γGlu-γGlu-γGlu-γGlu-C18 diacid])GGPSEGASLRHYYNWLTRQRY-NH2 [Compound 295, Y-Aib-E-G-T-F-T-S-D-Y-S-I-Aib-L-E-K-Q-A-Q-Aib-A-F-V-E-W-L-I-K(1,3)-GGPSEGASLRHYYNWLTRQRY-NH2.C18DA-gGlu-gGlu-glu-gGlu-gGlu-eLys(1,2)]
0.3 | 0.28 | 16.2 | 2.62 | – | – | Y[Aib]EGTFTSDYSI[Aib]LEKQAQ[Aib]AFVEWLIK([εLys-γGlu-γGlu-γGlu-γGlu-γGlu-C20 diacid])GGPESPASLRHYYNWLTRQRY-NH2 [Compound 70, Y-Aib-E-G-T-F-T-S-D-Y-S-I-Aib-L-E-K-Q-A-Q-Aib-A-F-V-E-W-L-I-K(1,3)-GGPESPASLRHYYNWLTRQRY-NH2.C20DA-gGlu-gGlu-gGlu-gGlu-gGlu-eLys(1,2)]
0.24 | 0.32 | 13.7 | – | 46.3 | – | Y[Aib]EGTFTSDYSI[Aib]LEKQAQ[Aib]AFVQWLIK([AEEA-AEEA-γGlu-γGlu-γGlu-γGlu-C20 diacid])GGPEEPASLRHYYNWLTRQRY-NH2 [Compound 77, Y-Aib-E-G-T-F-T-S-D-Y-S-I-Aib-L-E-K-Q-A-Q-Aib-A-F-V-Q-W-L-I-K(1,3)-GGPEEPASLRHYYNWLTRQRY-NH2.C20DA-gGlu-gGlu-gGlu-gGlu-OEG-OEG(1,2)]
0.04 | 0.14 | 10.5 | 0.49 | 26.5 | 0.82 | Y[Aib]EGTFTSDYSI[Aib]LEKQAQ[Aib]AFVQWLIK([AEEA-AEEA-γGlu-γGlu-γGlu-γGlu-γGlu-C18 diacid])GGPSSGASLRHYYNWLTRQRY-NH2 [Compound 167, Y-Aib-E-G-T-F-T-S-D-Y-S-I-Aib-L-E-K-Q-A-Q-Aib-A-F-V-Q-W-L-I-K(1,3)-GGPSSGASLRHYYNWLTRQRY-NH2.C18DA-gGlu-gGlu-gGlu-gGlu-gGlu-OEG-OEG(1,2)]
